The supplement of paper PMC8960247
Structures can show the parent of a compound that is named as a salt. ± gives the standard error.

Tested on: 621-102 (TSC2-deficient)
Test: relative viability vs DMSO; higher = less cytotoxic
Conditions: 0.001 µM; serum: 10% FBS; 72 h
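Further: immortalized renal angiomyolipoma cells stably carrying empty vector or TSC2, dosed in 384-well plates in DMEM, viability normalized to vehicle-treated wells within each plate.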

Row | Compound | relative viability [%]
1 | CC(=O)O[C@H]1CC[C@@]2(C)C(=CC[C@@H]3[C@@H]2CC[C@]2(C)C(c4cccnc4)=CC[C@@H]32)C1 [Abiraterone Acetate (CB7630)] | 108 ± 7
2 | CC(=O)Nc1ccccc1 [Acetanilide] | 111 ± 0.29
3 | Nc1[nH]cnc2ncnc1-2 [Adenine HCl] | 103 ± 0.93
4 | Nc1[nH]cnc2ncnc1-2 [Adenine] | 96.5 ± 2.6
5 | COc1cccc2c1C(=O)c1c(O)c3c(c(O)c1C2=O)C[C@@](O)(C(=O)CO)C[C@@H]3O[C@H]1C[C@H](N)[C@H](O)[C@H](C)O1 [Adriamycin] | 93.5 ± 5.5
6 | NCCCC(O)(P(=O)(O)O)P(=O)(O)O [Alendronate Sodium] | 103 ± 1.3
7 | COCCCOc1cc(C[C@@H](C[C@H](N)[C@@H](O)C[C@H](C(=O)NCC(C)(C)C(N)=O)C(C)C)C(C)C)ccc1OC [Aliskiren hemifumarate] | 111 ± 2.7
8 | O=C1c2ccccc2C(=O)c2c1ccc(O)c2O [Alizarin] | 110 ± 0.84
9 | Oc1ncnc2[nH]ncc12 [Allopurinol] | 105 ± 2.6
10 | NC12CC3CC(CC(C3)C1)C2 [Amantadine HCl (Symmetrel)] | 96.9 ± 4.5
11 | CC(NC(C)(C)C)C(=O)c1cccc(Cl)c1 (centres undefined) [Amfebutamone] | 103 ± 1.4
12 | CCN1CCCC1CNC(=O)c1cc(S(=O)(=O)CC)c(N)cc1OC (centres undefined) [Amisulpride] | 100 ± 1.3
13 | CCOC(=O)C1=C(COCCN)NC(C)=C(C(=O)OC)C1c1ccccc1Cl (centres undefined) [Amlodipine besylate] | 72.3 ± 1.8
14 | CC(C)(C#N)c1cc(Cn2cncn2)cc(C(C)(C)C#N)c1 [Anastrozole (Arimidex)] | 109 ± 6.2
15 | N#CC1(c2ccc(NC(=O)c3cccnc3NCc3ccncc3)cc2)CCCC1 [Apatinib] | 109.9 ± 0.77
16 | O=c1cc(-c2ccc(O)cc2)oc2cc(O)cc(O)c12 [Apigenin] | 105 ± 2.6
17 | COc1ccc(-n2nc(C(N)=O)c3c2C(=O)N(c2ccc(N4CCCCC4=O)cc2)CC3)cc1 [Apixaban] | 121 ± 0.2
18 | COc1cc(OC)c(OC)cc1C=O [Asaraldehyde] | 116.4 ± 0.26
19 | CN1CC2c3ccccc3Oc3ccc(Cl)cc3C2C1 (centres undefined) [Asenapine maleate] | 105.4 ± 0.74
20 | CN1[C@@H]2CC[C@H]1C[C@@H](OC(=O)C(CO)c1ccccc1)C2 (some centres undefined) [Atropine sulfate monohydrate] | 79 ± 1.7

Same assay, conditions: 0.01 µM; serum: 10% FBS; 72 h

Row | Compound | relative viability [%]
21 | CC1(C)CCC(c2ccc(Cl)cc2)=C(CN2CCN(c3ccc(C(=O)NS(=O)(=O)c4ccc(N[C@H](CCN5CCOCC5)CSc5ccccc5)c(S(=O)(=O)C(F)(F)F)c4)cc3)CC2)C1 [ABT-263 (Navitoclax)] | 116 ± 4.2
22 | COc1ccc(S(=O)(=O)Nc2cccnc2Nc2ccc(O)cc2)cc1 [ABT-751] | 111 ± 1.8
23 | Cc1ccc(F)c(NC(=O)Nc2ccc(-c3cccc4[nH]nc(N)c34)cc2)c1 [ABT-869] | 108 ± 1.6
24 | C[C@]1(c2nc3c(C(N)=O)cccc3[nH]2)CCCN1 [ABT-888] | 124.3 ± 1.1
25 | CC(C)(C)c1cc(NC(=O)Nc2ccc(-c3cn4c(n3)sc3cc(OCCN5CCOCC5)ccc34)cc2)no1 [AC-220] | 87.3 ± 3.6
26 | N#C/C(=C\c1ccc(O)c(O)c1)C(=O)NCc1ccccc1 [AG-490] | 92.6 ± 2.9
27 | Cc1csc(-c2nnc(Nc3ccc(Oc4ncccc4-c4ccnc(N)n4)cc3)c3ccccc23)c1 [AMG900] | 75.4 ± 0.76
28 | CC(C)[C@H](C(=O)Nc1ccc(C(=O)NO)cc1)c1ccccc1 [AR-42 (HDAC-42)] | 90.8 ± 3.5
29 | Clc1ccc(C2(c3ccc(-c4cn[nH]c4)cc3)CCNCC2)cc1 [AT7867] | 105 ± 4.8
30 | COc1cc2nccc(Oc3ccc(NC(=O)Nc4cc(C)on4)c(Cl)c3)c2cc1OC [AV-951(Tivozanib)] | 110 ± 5.9
31 | Cc1cc(Nc2nc(N[C@@H](C)c3ccc(F)cc3)c(C#N)cc2F)n[nH]1 [AZ 960] | 103 ± 4.5
32 | CCN(CCO)CCCOc1ccc2c(Nc3cc(CC(=O)Nc4cccc(F)c4)[nH]n3)ncnc2c1 [AZD1152-HQPA (Barasertib)] | 107 ± 2
33 | Cc1cc(Nc2nc(N[C@@H](C)c3ncc(F)cn3)ncc2Cl)[nH]n1 [AZD1480] | 104 ± 1.7
34 | O=C(c1cc(Cc2n[nH]c(=O)c3ccccc23)ccc1F)N1CCN(C(=O)C2CC2)CC1 [AZD2281 (Olaparib)] | 125 ± 5.6
35 | Cc1ncc(-c2ccnc(Nc3ccc(S(C)(=O)=O)cc3)n2)n1C(C)C [AZD5438] | 95.4 ± 1.6
36 | Cn1cnc2c(F)c(Nc3ccc(Br)cc3Cl)c(C(=O)NOCCO)cc21 [AZD6244 (Selumetinib)] | 96.8 ± 1.1
37 | COc1ccc(-c2ccc3c(N4CCOC[C@@H]4C)nc(N4CCOC[C@@H]4C)nc3n2)cc1CO [AZD8055] | 66.51 ± 0.58
38 | Cc1cc(C(=O)NOCCO)c(Nc2ccc(I)cc2F)n(C)c1=O [AZD8330] | 99.3 ± 1.3
39 | CNC(=O)CN1CCC(Oc2cc3c(Nc4cccc(Cl)c4F)ncnc3cc2OC)CC1 [AZD8931] | 98.4 ± 2
40 | CC(=O)O[C@H]1CC[C@@]2(C)C(=CC[C@@H]3[C@@H]2CC[C@]2(C)C(c4cccnc4)=CC[C@@H]32)C1 [Abiraterone Acetate (CB7630)] | 102 ± 0.7

Row | Compound | relative viability [%]
41 | CC(=O)Nc1ccccc1 [Acetanilide] | 109 ± 2.3
42 | Nc1[nH]cnc2ncnc1-2 [Adenine HCl] | 97.03 ± 0.37
43 | Nc1[nH]cnc2ncnc1-2 [Adenine] | 100 ± 3
44 | COc1cccc2c1C(=O)c1c(O)c3c(c(O)c1C2=O)C[C@@](O)(C(=O)CO)C[C@@H]3O[C@H]1C[C@H](N)[C@H](O)[C@H](C)O1 [Adriamycin] | 71.1 ± 1.7
45 | NCCCC(O)(P(=O)(O)O)P(=O)(O)O [Alendronate Sodium] | 103 ± 2.7
46 | COCCCOc1cc(C[C@@H](C[C@H](N)[C@@H](O)C[C@H](C(=O)NCC(C)(C)C(N)=O)C(C)C)C(C)C)ccc1OC [Aliskiren hemifumarate] | 106 ± 5.1
47 | O=C1c2ccccc2C(=O)c2c1ccc(O)c2O [Alizarin] | 108 ± 4.6
48 | Oc1ncnc2[nH]ncc12 [Allopurinol] | 102 ± 1.7
49 | NC12CC3CC(CC(C3)C1)C2 [Amantadine HCl (Symmetrel)] | 94.9 ± 3.8
50 | CC(NC(C)(C)C)C(=O)c1cccc(Cl)c1 (centres undefined) [Amfebutamone] | 104.4 ± 0.4
51 | CCN1CCCC1CNC(=O)c1cc(S(=O)(=O)CC)c(N)cc1OC (centres undefined) [Amisulpride] | 104.3 ± 0.84
52 | CCOC(=O)C1=C(COCCN)NC(C)=C(C(=O)OC)C1c1ccccc1Cl (centres undefined) [Amlodipine besylate] | 76.1 ± 6.9
53 | CC(C)(C#N)c1cc(Cn2cncn2)cc(C(C)(C)C#N)c1 [Anastrozole (Arimidex)] | 108 ± 3.5
54 | N#CC1(c2ccc(NC(=O)c3cccnc3NCc3ccncc3)cc2)CCCC1 [Apatinib] | 111.8 ± 0.42
55 | O=c1cc(-c2ccc(O)cc2)oc2cc(O)cc(O)c12 [Apigenin] | 110 ± 2.2
56 | COc1ccc(-n2nc(C(N)=O)c3c2C(=O)N(c2ccc(N4CCCCC4=O)cc2)CC3)cc1 [Apixaban] | 112 ± 4.2
57 | COc1cc(OC)c(OC)cc1C=O [Asaraldehyde] | 109.6 ± 0.37
58 | CN1CC2c3ccccc3Oc3ccc(Cl)cc3C2C1 (centres undefined) [Asenapine maleate] | 106.4 ± 0.12
59 | CN1[C@@H]2CC[C@H]1C[C@@H](OC(=O)C(CO)c1ccccc1)C2 (some centres undefined) [Atropine sulfate monohydrate] | 83.3 ± 5.4
